Reference: PMC10762035, “Molecular basis of human trace amine-associated receptor 1 activation” (Nature Communications, 2024)
Where a chain is given by its changes, count along the chain named. Where “and” joins values, the source holds several entries; their conditions need not be identical. Identical values can stand only once. Like-named read-outs stand apart in the source and are kept apart here.

How the values were obtained:
hTA1 = target: T1, hTA1 (Homo sapiens, UniProt Q96RJ0); assay: GloSensor cAMP accumulation assay, concentration response, wild-type hTA1 in transfected HEK293T cells; type: cell-based; details: for Emax: HEK-293T; for Dose-response curves for asenapine vs endogenous trace amines: log[Compound], replicate values (N=2);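 on all read-outs here: luminescence read after 30 min compound exposure at room temperature in cells preloaded with D-Luciferin, reflecting Gs-driven cAMP rise, efficacy scaled to the maximal β-PEA response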
T1 construct: expressed in transfected cells; host or cells: HEK293T
T1 sequence (Q96RJ0 1-339): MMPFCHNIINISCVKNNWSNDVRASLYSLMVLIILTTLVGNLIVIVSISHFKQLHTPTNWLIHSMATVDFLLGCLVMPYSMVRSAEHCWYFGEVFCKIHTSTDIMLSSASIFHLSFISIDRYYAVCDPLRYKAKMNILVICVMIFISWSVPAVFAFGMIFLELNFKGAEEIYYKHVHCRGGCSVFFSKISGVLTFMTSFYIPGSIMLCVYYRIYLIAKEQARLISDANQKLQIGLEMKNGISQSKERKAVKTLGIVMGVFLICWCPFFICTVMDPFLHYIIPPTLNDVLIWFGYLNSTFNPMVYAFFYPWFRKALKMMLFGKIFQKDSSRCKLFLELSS

hTA1 R83H = target: T2, hTA1 R83H (Homo sapiens, UniProt Q96RJ0, R83H); assay: GloSensor cAMP accumulation assay, R83H mutant; type: cell-based;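 further: cells transiently co-expressing hTA1 and a cAMP GloSensor, luminescence read 30 min after agonist addition at room temperature, concentration–response fitted by non-linear regression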
T2 construct: expressed in transfected cells; host or cells: HEK293T
T2 sequence (Q96RJ0 1-339 R83H): T1 sequence (Q96RJ0 1-339) with R83H

hTA1 I290Y = target: T3, hTA1 I290Y (Homo sapiens, UniProt Q96RJ0, I290Y); assay: GloSensor cAMP accumulation assay, I290Y mutant; type: cell-based; details: for cAMP accumulation response, normalized (concentration-response source data, single replicate values): hTA1 I290Y (N=3), log[Compound];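 on cAMP accumulation response, normalized (concentration-response source data, single replicate values): normalized to the maximum response of β-PEA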
T3 construct: expressed in transfected cells; host or cells: HEK293T
T3 sequence (Q96RJ0 1-339 I290Y): T1 sequence (Q96RJ0 1-339) with I290Y

hTA1 T194A = target: T4, hTA1 T194A (Homo sapiens, UniProt Q96RJ0, T194A); assay: GloSensor cAMP accumulation assay, T194A mutant; details: for cAMP accumulation response, individual replicate values of the concentration-response curve: hTA1 T194A, log[Agonist], Supplementary Figure 5 source data
T4 sequence (Q96RJ0 1-339 T194A): T1 sequence (Q96RJ0 1-339) with T194A

SMILES: NCCc1ccc(O)cc1 [TYR, tyramine]
- Emax (hTA1): 99%
- Emax (hTA1; WT hTA1, β-PEA = 100, average of the two experiments, read-out: Emax values, Avg): 99%
- Emax (hTA1; WT hTA1, β-PEA = 100, each line an independent experiment, 3 replicates, read-out: Emax values (Mean)): 98.7%
- Emax values, Mean (hTA1; WT hTA1, β-PEA = 100, each line an independent experiment, 3 replicates): 99.2414
- Emax values, Avg (hTA1; WT, average of the experiments, β-PEA = 100): 98.98
- Emax values, Avg (hTA1; WT, average of the two experiments): 98.98
- Emax values, Mean (hTA1; WT, mean of each independent experiment (3 replicates), β-PEA = 100): 98.7253 and 99.2414
- Emax values, Mean (hTA1; WT, single experiments (3 replicates each), β-PEA = 100): 98.7253 and 99.2414
- Dose-response curves for asenapine vs endogenous trace amines (hTA1; M = -5): 87.8798 and 96.6135 and 100.84 and 85.1295 and 110.033 and 96.1011
- Dose-response curves for asenapine vs endogenous trace amines (hTA1; M = -5.522): 78.3008 and 89.6171 and 91.9649 and 78.2527 and 93.1412 and 82.5257
- Dose-response curves for asenapine vs endogenous trace amines (hTA1; M = -6): 74.2157 and 61.4437 and 71.9149 and 59.67 and 72.4888 and 65.1224
- Dose-response curves for asenapine vs endogenous trace amines (hTA1; M = -6.522): 42.6615 and 39.1398 and 48.3901 and 34.5221 and 51.4135 and 39.5962
- Dose-response curves for asenapine vs endogenous trace amines (hTA1; M = -7): 13.8777 and 16.742 and 21.1088 and 17.6752 and 31.7847 and 17.7865
- Dose-response curves for asenapine vs endogenous trace amines (hTA1; M = -7.522): 4.58 and 3.454 and 4.252 and 2.943 and 7.126 and 3.989
- Dose-response curves for asenapine vs endogenous trace amines (hTA1; M = -8): 2.796 and 3.5 and 3.313 and 3.588 and 4.545 and 4.122
- Dose-response curves for asenapine vs endogenous trace amines (hTA1; M = -8.522): 0.3075 and 0.6831 and 1.294 and -0.5515 and 0.6503 and 0.4723
- Dose-response curves for asenapine vs endogenous trace amines (hTA1; M = -9): -0.6786 and 0.2605 and 0.02574 and -1.508 and -0.9298 and -0.774
- Dose-response curves for asenapine vs endogenous trace amines (hTA1; M = -9.522): -0.5847 and -0.9603 and -0.3499 and -2.02 and -0.7963 and -1.241
- Dose-response curves for asenapine vs endogenous trace amines (hTA1; M = -10): -0.1151 and -1.148 and -0.9134 and -1.041 and -0.1064 and -1.063
- Dose-response curves for asenapine vs endogenous trace amines (hTA1; M = -10.522): -0.3029 and -1.148 and -1.43 and -1.798 and -1.019 and -1.397
- Dose-response curves for asenapine vs endogenous trace amines (hTA1; M = -11): -0.209 (3×) and -0.6182 and 0.361 and -0.7518
- Dose-response curves for asenapine vs endogenous trace amines (hTA1; M = -11.522): 0.0727 and -0.06817 and 0.2605 and -0.7073 and 0.1607 and -0.4179
- Dose-response curves for asenapine vs endogenous trace amines (hTA1; M = -12): 0.0727 and 1.247 and 0.777 and -1.086 and -0.774 (2×)
- Dose-response curves for asenapine vs endogenous trace amines (hTA1; M = -12.522): 0.4483 and 0.1197 and 0.3544 and -2.02 and -1.575 and -1.33
- EC50 (hTA1; pEC50 values (Mean), WT hTA1, each line an independent experiment, 3 replicates, Figure 2B source data): 414 nM and 416 nM
- EC50 (hTA1; pEC50 ± SEM, wt hTA1, HEK293T, n=3): 417 nM
- EC50 (hTA1; wt hTA1, HEK293T, n=3, read-out: EC50): 415 nM
- ΔEmax values (each mutant value - WT average) (hTA1 R83H; R83H mutant minus WT average): -13.6885
- EC50 (hTA1 R83H; R83H mutant, each line an independent experiment, 3 replicates, read-out: pEC50 values (Mean) (converted)): 5330 nM
- Emax (hTA1 R83H; R83H mutant, β-PEA = 100, each line an independent experiment, 3 replicates, read-out: Emax values (Mean)): 85.3%
- EC50 (hTA1 R83H; R83H, n=2, read-out: EC50): 31400 nM
- EC50 (hTA1 I290Y; I290Y, read-out: EC50): 1960 nM
- Emax (hTA1 I290Y; I290Y, read-out: Span ± SEM (Emax normalized to β-PEA)): 99 ± 3.2%
- EC50 (hTA1 I290Y; I290Y, single experiments (3 replicates each), read-out: pEC50 values, Mean (converted)): 2120 nM and 1010 nM and 3550 nM
- Emax values, Mean (hTA1 I290Y; I290Y, single experiments (3 replicates each), β-PEA = 100): 103.315 and 92.7474 and 100.92
- cAMP accumulation response, normalized (concentration-response source data, single replicate values) (hTA1 I290Y; M = -5): 70.7589 and 112.926 and 76.6069 and 77.3087 and 89.0347 and 68.1478 and 71.4902 and 86.1539 and 63.5944
- cAMP accumulation response, normalized (concentration-response source data, single replicate values) (hTA1 I290Y; M = -5.522): 50.1368 and 56.2927 and 58.1394 and 72.545 (2×) and 68.5142 and 46.6748 and 35.395 and 37.651
- cAMP accumulation response, normalized (concentration-response source data, single replicate values) (hTA1 I290Y; M = -6): 26.4369 and 46.4433 and 36.2862 and 39.5657 and 32.9698 and 41.0314 and 25.2433 and 19.6034 and 27.4992
- cAMP accumulation response, normalized (concentration-response source data, single replicate values) (hTA1 I290Y; M = -6.522): 10.4317 and 18.1265 and 13.2018 and 24.1753 and 16.4801 and 23.4424 and 9.4516 (2×) and 6.068
- cAMP accumulation response, normalized (concentration-response source data, single replicate values) (hTA1 I290Y; M = -7): 2.737 and 6.123 and 3.045 and 3.288 (2×) and 0.7233 and 1.556 and -0.7002 and 0.4278
- cAMP accumulation response, normalized (concentration-response source data, single replicate values) (hTA1 I290Y; M = -7.522): 0.8902 and 0.2746 and -1.88 and -4.407 and -4.773 and -3.674 and -4.0841 and -1.828 and -2.956
- cAMP accumulation response, normalized (concentration-response source data, single replicate values) (hTA1 I290Y; M = -8): -1.264 and 0.8902 and -0.6488 and -2.575 and -3.307 (2×) and -4.0841 (2×) and -5.212
- cAMP accumulation response, normalized (concentration-response source data, single replicate values) (hTA1 I290Y; M = -8.522): -1.264 and -0.0332 and 0.5824 and -4.407 and -3.674 and -2.956 (2×) and -4.0841
- cAMP accumulation response, normalized (concentration-response source data, single replicate values) (hTA1 I290Y; M = -9): -3.7267 and 0.8902 and -1.88 and 1.823 and 4.021 and -3.674 and -1.828 and -2.956 and -4.0841
- cAMP accumulation response, normalized (concentration-response source data, single replicate values) (hTA1 I290Y; M = -9.522): -3.419 and -0.6488 and -1.88 and -6.239 and -4.407 and -2.208 and -2.956 (2×) and -5.212
- cAMP accumulation response, normalized (concentration-response source data, single replicate values) (hTA1 I290Y; M = -10): -1.88 and -0.9566 and -1.572 and -6.605 and -4.407 and -2.956 (2×) and -1.828
- cAMP accumulation response, normalized (concentration-response source data, single replicate values) (hTA1 I290Y; M = -10.522): -1.572 (2×) and 0.5824
- Emax values, Mean (hTA1 T194A; T149A (so in the source), single experiments (3 replicates each), β-PEA = 100): 107.638 and 114.006 and 104.682
- increase in potency vs wild type (hTA1 T194A; T194A): over 10 fold
- cAMP accumulation response, individual replicate values of the concentration-response curve (hTA1 T194A; M = -7.522): 49.8086 and 42.1239 and 66.6609 and 74.3619 and 75.9423 and 70.8058 and 84.4051 and 77.1239 and 72.2846
- cAMP accumulation response, individual replicate values of the concentration-response curve (hTA1 T194A; M = -8): 33.9 and 32.0125 and 38.7535 and 48.6794 and 43.1478 and 39.7894 and 64.0267 and 60.8745 and 66.5574
- cAMP accumulation response, individual replicate values of the concentration-response curve (hTA1 T194A; M = -8.522): 15.6995 and 22.1708 and 14.0817 and 16.28 and 19.441 and 18.4532 and 29.6632 and 30.1959 and 31.2615
- cAMP accumulation response, individual replicate values of the concentration-response curve (hTA1 T194A; M = -9): 1.409 and 7.206 and 6.936 and 8.575 and 6.7973 and 9.5631 and 13.5914 and 13.9909 and 14.0797
- cAMP accumulation response, individual replicate values of the concentration-response curve (hTA1 T194A; M = -9.522): 1.813 and 2.083 and -1.153 and 1.068 and 2.253 and 1.463 and 4.046 and 5.511 and 3.469
- cAMP accumulation response, individual replicate values of the concentration-response curve (hTA1 T194A; M = -10): -1.827 and -1.288 and -1.4224 and 2.056 (2×) and 1.661 and 1.693 and 1.604 and 1.782
- cAMP accumulation response, individual replicate values of the concentration-response curve (hTA1 T194A; M = -10.522): -1.827 and -0.7483 and -1.153 and 0.2779 and -0.3148 and -0.1172 and 1.027 and 0.8937 (2×)
- cAMP accumulation response, individual replicate values of the concentration-response curve (hTA1 T194A; M = -11): -0.4787 and -1.692 and -1.153 and 0.2779 and -1.105 and -1.303 and -0.971 and 0.4497 and 0.1834
- cAMP accumulation response, individual replicate values of the concentration-response curve (hTA1 T194A; M = -11.522): -1.557 and 0.8695 and -1.4224 and -1.105 (2×) and -0.7099 and 0.09457 and 0.05017 and 0.4053
- cAMP accumulation response, individual replicate values of the concentration-response curve (hTA1 T194A; M = -12): -0.7483 (2×) and -1.288 and -0.9074 (2×) and -0.3148 and -0.4826 and -0.1718 and -0.2162
- cAMP accumulation response, individual replicate values of the concentration-response curve (hTA1 T194A; M = -12.522): -0.07421 and 1.139 and 0.4651 and -1.105 (2×) and -0.5123 and -0.08302 and -0.2606 and 0.005772
- EC50 (hTA1 T194A; pEC50 values, Mean, T149A (so in the source), single experiments (3 replicates each)): 8.01 nM and 26.8 nM and 14.3 nM
- EC50 (hTA1 T194A; pEC50 ± SEM, T194A): 14.5 nM
- Emax (hTA1 T194A; read-out: Span ± SEM (Emax normalized to β-PEA), T194A): 109 ± 4.66%
